Reference: patent publication US12194124B2, “Personal care compositions for treating odor causing bacteria and methods for the same” (Colgate-Palmolive Company, priority 2019, dated 2025)

System: C. Striatum
Assay: Growth inhibition assay in 96-well plate, optical density of C. Striatum
Type: cell-based, Corynebacterium striatum
Protocol: The efficacy of 2-butyl octanol for selectively promoting, inhibiting, reducing, and/or treating bacterial growth was evaluated. Particularly, the efficacy of 2-butyl octanol for selectively promoting, inhibiting, reducing, and/or treating bacterial growth of Corynebacterium and Staphylococcus was evaluated. To evaluate the efficacy, an active solution was prepared by emulsifying 2-butyl octanol with a nonionic surfactant, namely, Polysorbate 80. The active solution included the 2-butyl octanol and the Polysorbate 80 in a ratio of about 83:17. Both positive controls (including no active solution) and negative controls (including no bacteria) were also prepared.
A 96-well plate was utilized to evaluate the growth of the respective bacteria at varying dilutions. Each of the wells of a 96-well plate was aseptically filled with about 100 μL of Tryptic Soy Broth (TSB). In the first well of each row, about 100 μL of either the active solution (including the 2-butyl octanol and Polysorbate 80) or the desired solvent for the respective positive and negative controls was added to thereby provide a total of about 200 μL in the first well of the each respective row. A multi-channel pipette was then utilized to prepare a two-fold dilution in each column. Specifically, a multi-channel pipette set to about 100 μL was utilized to mix and transfer about 100 μL of the 200 μL from the wells of the first column to the respective wells of a subsequent column. This was repeated for each of the remaining eleven columns. About 100 μL of the twelfth column was removed, thereby leaving about 100 μL in each of the 96 wells. […] Specifically, a phosphate buffered saline (PBS) was utilized for the negative control. About 100 μL of the respective bacteria adjusted to 0.1 optical density (OD) bacteria was added to all other wells. The well plate was then incubated overnight at about 37° C. in a growth inhibition assay machine. Measurements were taken at about one hour increments.

Q: How did the “Measured Optical Density of C. Striatum” value (0.02% 2-Butyl Octanol, 1 Hour) turn out when CCCCCCC(CO)CCCC (stereo not shown) [2-butyl octanol, 2-butyl-1-octanol] was run?
A: Its value is 0.

Q: And the “Measured Optical Density of C. Striatum” value (0.02% 2-Butyl Octanol, 2 Hour)?
A: The value was 0.086.

Q: What about the “Measured Optical Density of C. Striatum” value (0.02% 2-Butyl Octanol, 3 Hour) of the same compound?
A: Its value is 0.13.

Q: And the “Measured Optical Density of C. Striatum” value (0.02% 2-Butyl Octanol, 4 Hour)?
A: The value was 0.139.

Q: What about the “Measured Optical Density of C. Striatum” value (0.02% 2-Butyl Octanol, 5 Hour) of the same compound?
A: Its value is 0.143.

Q: What about the “Measured Optical Density of C. Striatum” value (0.02% 2-Butyl Octanol, 6 Hour) of the same compound?
A: The value was 0.144.

Q: And the “Measured Optical Density of C. Striatum” value (0.02% 2-Butyl Octanol, 7 Hour)?
A: Its value is 0.144.

Q: And the “Measured Optical Density of C. Striatum” value (0.02% 2-Butyl Octanol, 8 Hour)?
A: The value was 0.144.

Q: What about the “Measured Optical Density of C. Striatum” value (0.02% 2-Butyl Octanol, 9 Hour) of the same compound?
A: Its value is 0.146.

Q: What about the “Measured Optical Density of C. Striatum” value (0.02% 2-Butyl Octanol, 10 Hour) of the same compound?
A: Its value is 0.149.

Q: And the “Measured Optical Density of C. Striatum” value (0.02% 2-Butyl Octanol, 11 Hour)?
A: The value was 0.155.

Q: And the “Measured Optical Density of C. Striatum” value (0.02% 2-Butyl Octanol, 12 Hour)?
A: Its value is 0.163.

Q: What about the “Measured Optical Density of C. Striatum” value (0.02% 2-Butyl Octanol, 13 Hour) of the same compound?
A: The value was 0.178.

Q: What about the “Measured Optical Density of C. Striatum” value (0.02% 2-Butyl Octanol, 14 Hour) of the same compound?
A: Its value is 0.21.

Q: What about the “Measured Optical Density of C. Striatum” value (0.02% 2-Butyl Octanol, 15 Hour) of the same compound?
A: Its value is 0.254.

Q: What about the “Measured Optical Density of C. Striatum” value (0.02% 2-Butyl Octanol, 16 Hour) of the same compound?
A: Its value is 0.322.

Q: What about the “Measured Optical Density of C. Striatum” value (0.02% 2-Butyl Octanol, 17 Hour) of the same compound?
A: Its value is 0.404.

Q: What about the “Measured Optical Density of C. Striatum” value (0.02% 2-Butyl Octanol, 18 Hour) of the same compound?
A: Its value is 0.52.

Q: What about the “Measured Optical Density of C. Striatum” value (0.04% 2-Butyl Octanol, 1 Hour) of the same compound?
A: The value was 0.006.

Q: And the “Measured Optical Density of C. Striatum” value (0.04% 2-Butyl Octanol, 2 Hour)?
A: The value was 0.058.

Q: What about the “Measured Optical Density of C. Striatum” value (0.04% 2-Butyl Octanol, 3 Hour) of the same compound?
A: The value was 0.088.

Q: And the “Measured Optical Density of C. Striatum” value (0.04% 2-Butyl Octanol, 4 Hour)?
A: Its value is 0.1.

Q: What about the “Measured Optical Density of C. Striatum” value (0.04% 2-Butyl Octanol, 5 Hour) of the same compound?
A: The value was 0.111.

Q: And the “Measured Optical Density of C. Striatum” value (0.04% 2-Butyl Octanol, 6 Hour)?
A: Its value is 0.117.

Q: What about the “Measured Optical Density of C. Striatum” value (0.04% 2-Butyl Octanol, 7 Hour) of the same compound?
A: Its value is 0.121.

Q: What about the “Measured Optical Density of C. Striatum” value (0.04% 2-Butyl Octanol, 8 Hour) of the same compound?
A: Its value is 0.124.

Q: And the “Measured Optical Density of C. Striatum” value (0.04% 2-Butyl Octanol, 9 Hour)?
A: Its value is 0.127.

Q: And the “Measured Optical Density of C. Striatum” value (0.04% 2-Butyl Octanol, 10 Hour)?
A: Its value is 0.13.

Q: And the “Measured Optical Density of C. Striatum” value (0.04% 2-Butyl Octanol, 11 Hour)?
A: The value was 0.133.

Q: And the “Measured Optical Density of C. Striatum” value (0.04% 2-Butyl Octanol, 12 Hour)?
A: The value was 0.136.

Q: And the “Measured Optical Density of C. Striatum” value (0.04% 2-Butyl Octanol, 13 Hour)?
A: The value was 0.141.

Q: What about the “Measured Optical Density of C. Striatum” value (0.04% 2-Butyl Octanol, 14 Hour) of the same compound?
A: Its value is 0.149.

Q: And the “Measured Optical Density of C. Striatum” value (0.04% 2-Butyl Octanol, 15 Hour)?
A: Its value is 0.166.

Q: What about the “Measured Optical Density of C. Striatum” value (0.04% 2-Butyl Octanol, 16 Hour) of the same compound?
A: The value was 0.192.

Q: And the “Measured Optical Density of C. Striatum” value (0.04% 2-Butyl Octanol, 17 Hour)?
A: Its value is 0.234.

Q: And the “Measured Optical Density of C. Striatum” value (0.04% 2-Butyl Octanol, 18 Hour)?
A: Its value is 0.298.

Q: And the “Measured Optical Density of C. Striatum” value (0.08% 2-Butyl Octanol, 1 Hour)?
A: The value was 0.014.

Q: What about the “Measured Optical Density of C. Striatum” value (0.08% 2-Butyl Octanol, 2 Hour) of the same compound?
A: Its value is 0.07.

Q: What about the “Measured Optical Density of C. Striatum” value (0.08% 2-Butyl Octanol, 3 Hour) of the same compound?
A: Its value is 0.108.

Q: What about the “Measured Optical Density of C. Striatum” value (0.08% 2-Butyl Octanol, 4 Hour) of the same compound?
A: The value was 0.118.

Q: What about the “Measured Optical Density of C. Striatum” value (0.08% 2-Butyl Octanol, 5 Hour) of the same compound?
A: The value was 0.124.

Q: What about the “Measured Optical Density of C. Striatum” value (0.08% 2-Butyl Octanol, 6 Hour) of the same compound?
A: The value was 0.127.

Q: What about the “Measured Optical Density of C. Striatum” value (0.08% 2-Butyl Octanol, 7 Hour) of the same compound?
A: Its value is 0.129.

Q: And the “Measured Optical Density of C. Striatum” value (0.08% 2-Butyl Octanol, 8 Hour)?
A: Its value is 0.131.

Q: What about the “Measured Optical Density of C. Striatum” value (0.08% 2-Butyl Octanol, 9 Hour) of the same compound?
A: Its value is 0.132.

Q: And the “Measured Optical Density of C. Striatum” value (0.08% 2-Butyl Octanol, 10 Hour)?
A: The value was 0.133.

Q: What about the “Measured Optical Density of C. Striatum” value (0.08% 2-Butyl Octanol, 11 Hour) of the same compound?
A: Its value is 0.133.

Q: And the “Measured Optical Density of C. Striatum” value (0.08% 2-Butyl Octanol, 12 Hour)?
A: Its value is 0.134.

Q: And the “Measured Optical Density of C. Striatum” value (0.08% 2-Butyl Octanol, 13 Hour)?
A: The value was 0.137.

Q: What about the “Measured Optical Density of C. Striatum” value (0.08% 2-Butyl Octanol, 14 Hour) of the same compound?
A: The value was 0.141.

Q: What about the “Measured Optical Density of C. Striatum” value (0.08% 2-Butyl Octanol, 15 Hour) of the same compound?
A: Its value is 0.151.

Q: What about the “Measured Optical Density of C. Striatum” value (0.08% 2-Butyl Octanol, 16 Hour) of the same compound?
A: The value was 0.168.

Q: What about the “Measured Optical Density of C. Striatum” value (0.08% 2-Butyl Octanol, 17 Hour) of the same compound?
A: The value was 0.194.

Q: What about the “Measured Optical Density of C. Striatum” value (0.08% 2-Butyl Octanol, 18 Hour) of the same compound?
A: The value was 0.23.

Q: What about the “Measured Optical Density of C. Striatum” value (0.16% 2-Butyl Octanol, 1 Hour) of the same compound?
A: Its value is 0.038.

Q: And the “Measured Optical Density of C. Striatum” value (0.16% 2-Butyl Octanol, 2 Hour)?
A: Its value is 0.037.

Q: And the “Measured Optical Density of C. Striatum” value (0.16% 2-Butyl Octanol, 3 Hour)?
A: The value was 0.036.

Q: And the “Measured Optical Density of C. Striatum” value (0.16% 2-Butyl Octanol, 4 Hour)?
A: The value was 0.036.

Q: What about the “Measured Optical Density of C. Striatum” value (0.16% 2-Butyl Octanol, 5 Hour) of the same compound?
A: The value was 0.036.

Q: And the “Measured Optical Density of C. Striatum” value (0.16% 2-Butyl Octanol, 6 Hour)?
A: Its value is 0.036.

Q: And the “Measured Optical Density of C. Striatum” value (0.16% 2-Butyl Octanol, 7 Hour)?
A: Its value is 0.035.

Q: And the “Measured Optical Density of C. Striatum” value (0.16% 2-Butyl Octanol, 8 Hour)?
A: The value was 0.036.

Q: What about the “Measured Optical Density of C. Striatum” value (0.16% 2-Butyl Octanol, 9 Hour) of the same compound?
A: Its value is 0.036.

Q: What about the “Measured Optical Density of C. Striatum” value (0.16% 2-Butyl Octanol, 10 Hour) of the same compound?
A: The value was 0.037.

Q: And the “Measured Optical Density of C. Striatum” value (0.16% 2-Butyl Octanol, 11 Hour)?
A: The value was 0.037.

Q: What about the “Measured Optical Density of C. Striatum” value (0.16% 2-Butyl Octanol, 12 Hour) of the same compound?
A: Its value is 0.037.

Q: What about the “Measured Optical Density of C. Striatum” value (0.16% 2-Butyl Octanol, 13 Hour) of the same compound?
A: The value was 0.038.

Q: What about the “Measured Optical Density of C. Striatum” value (0.16% 2-Butyl Octanol, 14 Hour) of the same compound?
A: Its value is 0.038.

Q: What about the “Measured Optical Density of C. Striatum” value (0.16% 2-Butyl Octanol, 15 Hour) of the same compound?
A: Its value is 0.039.

Q: And the “Measured Optical Density of C. Striatum” value (0.16% 2-Butyl Octanol, 16 Hour)?
A: Its value is 0.04.

Q: And the “Measured Optical Density of C. Striatum” value (0.16% 2-Butyl Octanol, 17 Hour)?
A: Its value is 0.041.

Q: And the “Measured Optical Density of C. Striatum” value (0.16% 2-Butyl Octanol, 18 Hour)?
A: Its value is 0.041.

Q: What about the “growth of C. stratium” value (2-butyl octanol at least about 1.6% or greater (Table 3)) of the same compound?
A: Its value is “completely inhibited”.
